# In ChEMBL document CHEMBL3507680, “University of Dundee, Gates Library screen for HepG2 cell viability”:
# Test: Human HepG2 cell viability assay in 384 well format
# Assay type: toxicity, cell-based
# Parameters: dose 125 nL, time 70.5 hour; cytotoxicity at 70.5 h: concentration not given beside the values
# Conditions: HepG2 cells, read-out: Inhibition
compound,measurement,value
O=C(CC1CC1)N1C[C@H]2CCN[C@H]2C1,cytotoxicity at 70.5 h,-4.97%
N#Cc1cccc(NC(=O)N2CCC3(CCC(=O)N(C4CC4)C3)CC2)c1,cytotoxicity at 70.5 h,-2.97%
C=C(C)COCCNC(=O)Nc1cccc(Cn2nc(C)nc2C)c1,cytotoxicity at 70.5 h,19.9%
Cc1cnn(CC2CCCN2Cc2cc(=O)n3ccccc3n2)c1 (configuration not stated),cytotoxicity at 70.5 h,-5.58%
CC[C@H]1COCCN1C(=O)CCCn1nnc(-c2ccc(F)cc2)n1,cytotoxicity at 70.5 h,-1.69%
Nc1nc(CCNc2ncnc3c2CCN(C(=O)C2CC2)C3)cs1,cytotoxicity at 70.5 h,-11.6%
CCSCc1nc(O)c2nnn(C3CCN(Cc4ccco4)CC3)c2n1,cytotoxicity at 70.5 h,9.06%
c1csc(N2CCN(Cc3nnnn3C3CC3)CC2)n1,cytotoxicity at 70.5 h,0.58%
Cc1ccccc1-n1cc(-c2ccnc(NC(CO)C(C)C)n2)cn1 (configuration not stated),cytotoxicity at 70.5 h,-7.36%
O=C(C[S+]([O-])C1CCCC1)NCCOc1cccc(Cl)c1 (configuration not stated),cytotoxicity at 70.5 h,-6.11%
Cc1n[nH]cc1CNCC(O)c1ccc(F)c(F)c1 (configuration not stated),cytotoxicity at 70.5 h,-7.55%
Cc1cc(I)c2c(c1)C(=O)C(CN1CCCC1)(CN1CCCC1)CO2,cytotoxicity at 70.5 h,-0.395%
COCCN1CCN(Cc2nc3c(s2)CCCC3)[C@H]2CS(=O)(=O)C[C@H]21,cytotoxicity at 70.5 h,-8.18%
Cc1ccc(N(CCC#N)C(=O)CCc2cccnc2)cc1C,cytotoxicity at 70.5 h,-5.18%
CC(C)Nc1ncnc2c1CCN(C(=O)[C@H]1CCCO1)CC2,cytotoxicity at 70.5 h,-6.46%
Cc1ccc(OC2(C(=O)O)CCN(C(=O)c3cccs3)CC2)cn1,cytotoxicity at 70.5 h,17.4%
Cc1c(C2N3C[C@]4(C)CN2C[C@](C)(C3)C4=O)[nH]c(=O)[nH]c1=O (some centres not stated),cytotoxicity at 70.5 h,-11.7%
COc1cccc2cc(CNC(=O)N3CCOC(C)(C)C3)oc12,cytotoxicity at 70.5 h,14%
CC(Cn1cccn1)NCCS(=O)(=O)c1ccc(Cl)cc1 (configuration not stated),cytotoxicity at 70.5 h,-9.68%
CN1CCC2(CCN(C(=O)c3ccccc3)CC2)C1,cytotoxicity at 70.5 h,31.4%
Cc1cn2c(n1)CCC(NC(=O)Cn1cncn1)C2 (configuration not stated),cytotoxicity at 70.5 h,-5.67%
O=C(O)c1c(Cl)ncn1-c1ccccc1,cytotoxicity at 70.5 h,-9.78%
N#Cc1c2n(c3c(=O)[nH]cnc13)CCCC2,cytotoxicity at 70.5 h,-6.51%
O=C(c1ccco1)N1C[C@@H]2OCCN(CCN3CCCC3)[C@@H]2C1,cytotoxicity at 70.5 h,-11.2%
O=C(C1CCC1)N1CCC2(CCCN2CC2CC2)CC1,cytotoxicity at 70.5 h,-0.744%
CCC(=O)N1CCN(C(=O)Nc2cccc(N3CCOCC3)c2)CC1,cytotoxicity at 70.5 h,2.85%
O=C(Cc1cccc(F)c1F)NC1COc2ccccc2C1=O (configuration not stated),cytotoxicity at 70.5 h,-10.6%
O=C(COCC1CC1)Nc1ncn(CC(=O)N2CCCCCC2)n1,cytotoxicity at 70.5 h,-3.31%
CN1CC2(CCN(C(=O)c3ccc(=O)n(C)c3)CC2)CC1=O,cytotoxicity at 70.5 h,18.9%
CC(Cc1ccsc1)NC(=O)c1cc(N2CCNC2=O)ccc1F (configuration not stated),cytotoxicity at 70.5 h,-9.62%
CCOC(=O)N1CCN(C(=O)c2ccc3ccn(C)c3c2)CC1,cytotoxicity at 70.5 h,-8.79%
COCC(=O)N1CCCC(c2cccc(-n3ccnc3)n2)C1 (configuration not stated),cytotoxicity at 70.5 h,4.64%
C[C@]1(O)CCN(Cc2cccnc2)C[C@@H]1Oc1cccc(F)c1,cytotoxicity at 70.5 h,-2.19%
Cc1ccnc(NCCNC(=O)Cc2c(C)[nH]c3c(C)ccc(C)c23)c1,cytotoxicity at 70.5 h,34.5%
Cc1cc(C(=O)NC2CCN(c3nnc(C)c(C)c3C#N)CC2)no1,cytotoxicity at 70.5 h,-6.5%
CNS(=O)(=O)c1csc(C(=O)N(C)Cc2ccccc2C)c1,cytotoxicity at 70.5 h,0.0278%
CC(=O)N[C@@H]1CN(C(=O)c2cc3ccccc3[nH]2)C[C@H]1c1ccc(C)o1,cytotoxicity at 70.5 h,-9.58%
NC(=O)CCSCc1cc(Br)cc2cccnc12,cytotoxicity at 70.5 h,10.9%
COCCNC(=O)C1(CCCc2cccnc2)CCCN1C (configuration not stated),cytotoxicity at 70.5 h,13.5%
Cc1occc1C(=O)N1C[C@H](Oc2ccccn2)[C@H]2OCCC[C@H]21,cytotoxicity at 70.5 h,-10.8%
CCN(C(C)=O)C(c1cccnc1)c1cc(C)cc(C)c1 (configuration not stated),cytotoxicity at 70.5 h,6.16%
COCCSc1ccc(C(C)NC(=O)Nc2cn[nH]c2)cc1 (configuration not stated),cytotoxicity at 70.5 h,-6.86%
Cc1ccc(Oc2cc(F)ccc2O[C@@H]2CCC[C@@H](N)[C@H]2O)cc1,cytotoxicity at 70.5 h,16%
CC(CCc1ccc(O)cc1)NC1CCN(C(=O)C(C)C)CC1 (configuration not stated),cytotoxicity at 70.5 h,-11.4%
CO[C@@H]1CCC[C@@H](NC(=O)CCCn2cncn2)[C@H]1O,cytotoxicity at 70.5 h,-1.73%
O=C(Cc1ccccc1)NCCNC(=O)c1scnc1Cl,cytotoxicity at 70.5 h,-9.54%
Cc1ccc(CN2CC3(CCN(C(=O)C4CC4)CC3)CC2C(=O)O)o1 (configuration not stated),cytotoxicity at 70.5 h,-2.54%
O=C(CCc1nccs1)N1CCCC(n2ccnc2)C1 (configuration not stated),cytotoxicity at 70.5 h,-11.8%
COc1ccc(-c2noc([C@@H]3C[C@H](NC(=O)NC(C)C)CN3C)n2)cc1,cytotoxicity at 70.5 h,-0.383%
Cc1nnc(CN(C)CC2(O)CCCN(CCC3CCCCC3)C2=O)o1 (configuration not stated),cytotoxicity at 70.5 h,2.51%
CCCC(=O)NCCc1cc(NC)nc(-c2ccccn2)n1,cytotoxicity at 70.5 h,20.8%
COC(=O)CCC(=O)N(Cc1ccc2cc[nH]c2c1)C1CC1,cytotoxicity at 70.5 h,-17.3%
O=C(NCC1CCCO1)c1nc2c(s1)CCCN2CC1CC1 (configuration not stated),cytotoxicity at 70.5 h,-2.36%
C[C@@H]1CN(Cc2ccco2)CCN1C(=O)Cc1ccccc1F,cytotoxicity at 70.5 h,-10.6%
Cc1noc2nc(C3CCCN(Cc4ccncc4)C3)cc(C(F)F)c12 (configuration not stated),cytotoxicity at 70.5 h,-3.5%
c1ccc2c(c1)COC1(CCCC1)N2,cytotoxicity at 70.5 h,22.7%
O=C(CN1CCC(Nc2ncccn2)CC1)Nc1ccccc1,cytotoxicity at 70.5 h,-5.9%
CCCN(CC(=O)NC)C(=O)c1ccc(-c2nc(C)cs2)cc1,cytotoxicity at 70.5 h,-10.1%
CCNC(=O)C1CCN(Cc2ccccc2OCC(F)(F)F)CC1,cytotoxicity at 70.5 h,-4.11%
COc1cccc(CCC(=O)N2CCN(Cc3noc(C)n3)CC2)c1,cytotoxicity at 70.5 h,-0.347%
CN(C)C(=O)c1cccnc1SCc1ccccc1Cl,cytotoxicity at 70.5 h,1.28%
CNC(=O)c1cnn2c(C3CCCN3)ccnc12 (configuration not stated),cytotoxicity at 70.5 h,6.37%
CN(C)c1ccc(CC2COCCN(Cc3nccn3C)C2)nn1 (configuration not stated),cytotoxicity at 70.5 h,-0.733%
Cc1nc(C)c(C(=O)N2CCC(Nc3cccnc3)CC2)s1,cytotoxicity at 70.5 h,-8.38%
CN(C)c1ncc2c(O)nc(C3CCNCC3)cc2n1,cytotoxicity at 70.5 h,-6.95%
CC(C)C(O)C1CCN(c2ccnc(C(=O)NCc3ccco3)c2)CC1 (configuration not stated),cytotoxicity at 70.5 h,-14.1%
COc1cc(NC(=O)c2cc(C)sc2C)c(C(=O)N(C)C)cc1OC,cytotoxicity at 70.5 h,-19.4%
CN(CCCc1n[nH]c(N)c1C#N)C(=O)NC1CC1,cytotoxicity at 70.5 h,-2.78%
CN1CCN(c2nc(O)cc(Cc3ccccc3F)n2)CC1,cytotoxicity at 70.5 h,-4.68%
Cc1nc(C2CCNC2)nc2c1CCC(=O)N2C (configuration not stated),cytotoxicity at 70.5 h,-4.12%
CC(C)NC(=O)C1CN(C(=O)NCc2ccccc2)CC12CCOCC2 (configuration not stated),cytotoxicity at 70.5 h,1.12%
CC(NC(=O)NCCCn1cccn1)c1ccncc1 (configuration not stated),cytotoxicity at 70.5 h,-10.8%
CC1CS(=O)(=O)CCN1CCCc1ccc(C(F)(F)F)cc1 (configuration not stated),cytotoxicity at 70.5 h,-10.6%
CN(Cc1noc(C2CC2)n1)C1CCN(CCn2cc(C#N)cn2)C1 (configuration not stated),cytotoxicity at 70.5 h,22.1%
Cc1cc(CN2CCN(c3ccnc(-c4ccccc4)n3)CC2)no1,cytotoxicity at 70.5 h,-4.67%
O=C(CCOc1ccccc1Cl)N1CCN(c2cnccn2)CC1,cytotoxicity at 70.5 h,0.75%
O=C(C1CCCCC1)N1C[C@@H]2CCNC[C@@H]21,cytotoxicity at 70.5 h,-4.1%
O=C(O)C1(n2cccn2)CCN(Cc2nc(-c3ccccc3)no2)CC1,cytotoxicity at 70.5 h,-9.66%
Cc1cc(C(F)(F)F)nc(CNc2nc(C)nc3c2cnn3C)n1,cytotoxicity at 70.5 h,-7.38%
CC(C)(C)c1n[nH]cc1CNC1CCC(OCC(F)(F)F)CC1 (configuration not stated),cytotoxicity at 70.5 h,-11.2%
Fc1cccc(N2CCCC3(CN(Cc4ccncc4)CCO3)C2)c1 (configuration not stated),cytotoxicity at 70.5 h,-4.69%
CCc1cc(O)nc(C2CCCN2C(=O)COC)n1 (configuration not stated),cytotoxicity at 70.5 h,-5.06%
